Results published in ChEMBL document CHEMBL1201862, “PubChem BioAssay data set” (2004).
Activity calls are given as the source filed them.

Assays:
[1] = target: T1, Polyadenylate-binding protein 1 (Homo sapiens, UniProt P11940); assay: MLLE binding blockers, Cy5 peptide tracer – biochemical, fluorescence polarization, Cy5-PAM2 peptide, secondary, miRNA deadenylation inhibitor project, dose response (AID 602260); assay type: functional; settings: read-out: IC50_Mean
[2] = target: T2, Mannose-6-phosphate isomerase (Homo sapiens, UniProt P34949); assay: MPI inhibition at elevated mannose 6-phosphate – biochemical, fluorescence intensity, high mannose 6-phosphate, primary screen (AID 1220)
T2 sequence (P34949 whole entry): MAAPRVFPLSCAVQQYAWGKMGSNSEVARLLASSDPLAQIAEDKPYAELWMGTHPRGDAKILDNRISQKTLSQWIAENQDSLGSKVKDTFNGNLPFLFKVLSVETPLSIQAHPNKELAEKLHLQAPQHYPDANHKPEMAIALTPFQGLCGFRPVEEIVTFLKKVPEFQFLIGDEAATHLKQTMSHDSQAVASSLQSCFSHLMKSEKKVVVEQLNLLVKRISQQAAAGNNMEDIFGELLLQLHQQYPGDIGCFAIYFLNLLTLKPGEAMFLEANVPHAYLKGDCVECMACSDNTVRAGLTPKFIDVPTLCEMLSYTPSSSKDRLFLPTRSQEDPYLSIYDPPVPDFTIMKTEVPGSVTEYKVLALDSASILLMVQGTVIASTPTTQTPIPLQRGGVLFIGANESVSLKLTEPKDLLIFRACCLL

[3] = target: T1, Polyadenylate-binding protein 1; assay: MLLE domain peptide-binding blockers, IC50 – biochemical, fluorescence polarization, FITC-PAM2 peptide, dose response (AID 602259); assay type: functional; settings: read-out: IC50_Mean
[4] = target: T3, Rac GTPase-activating protein 1 (Homo sapiens, UniProt Q9H0H5); assay: blockers of MgcRacGAP-driven Rac1 GTP hydrolysis – biochemical, ADP Hunter fluorescence, primary and confirmatory, confirmation (AID 624330); assay type: functional
T3 sequence (Q9H0H5 whole entry): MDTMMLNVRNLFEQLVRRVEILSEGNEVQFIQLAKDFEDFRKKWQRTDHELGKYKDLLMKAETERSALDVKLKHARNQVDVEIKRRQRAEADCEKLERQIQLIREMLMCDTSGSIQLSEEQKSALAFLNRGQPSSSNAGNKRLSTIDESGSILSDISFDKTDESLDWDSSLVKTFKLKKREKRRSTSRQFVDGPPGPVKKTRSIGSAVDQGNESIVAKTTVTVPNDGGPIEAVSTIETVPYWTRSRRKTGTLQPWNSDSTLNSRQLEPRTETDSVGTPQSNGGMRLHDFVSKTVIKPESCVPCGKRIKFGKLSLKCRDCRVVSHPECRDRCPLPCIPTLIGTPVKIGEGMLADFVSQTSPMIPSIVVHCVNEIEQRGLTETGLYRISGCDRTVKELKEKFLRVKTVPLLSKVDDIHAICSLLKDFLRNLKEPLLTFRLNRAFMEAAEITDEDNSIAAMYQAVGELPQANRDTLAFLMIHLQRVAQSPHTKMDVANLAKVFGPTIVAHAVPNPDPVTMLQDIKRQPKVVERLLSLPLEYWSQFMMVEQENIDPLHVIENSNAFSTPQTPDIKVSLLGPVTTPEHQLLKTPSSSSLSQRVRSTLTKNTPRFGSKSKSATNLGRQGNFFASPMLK

[5] = target: T2, Mannose-6-phosphate isomerase; assay: MPI enzyme activity inhibition – biochemical, fluorescence intensity, coupled assay, primary screen (AID 1209)
Large T antigen = Large T antigen (Simian virus 40, UniProt P03070); assay type: functional, Betapolyomavirus macacae;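 also: Confirmatory-stage PubChem screen for compounds that inhibit SV40 T antigen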
Aminopeptidase N = target: T4, Aminopeptidase N (Plasmodium falciparum FcB1/Columbia, UniProt O96935); assay: malaria alanyl aminopeptidase activity blockers – biochemical, fluorogenic H-Leu-NHMec substrate, 1536-well (AID 1445); design: species or system Plasmodium falciparum 3D7, 3D7
T4 sequence (O96935 whole entry): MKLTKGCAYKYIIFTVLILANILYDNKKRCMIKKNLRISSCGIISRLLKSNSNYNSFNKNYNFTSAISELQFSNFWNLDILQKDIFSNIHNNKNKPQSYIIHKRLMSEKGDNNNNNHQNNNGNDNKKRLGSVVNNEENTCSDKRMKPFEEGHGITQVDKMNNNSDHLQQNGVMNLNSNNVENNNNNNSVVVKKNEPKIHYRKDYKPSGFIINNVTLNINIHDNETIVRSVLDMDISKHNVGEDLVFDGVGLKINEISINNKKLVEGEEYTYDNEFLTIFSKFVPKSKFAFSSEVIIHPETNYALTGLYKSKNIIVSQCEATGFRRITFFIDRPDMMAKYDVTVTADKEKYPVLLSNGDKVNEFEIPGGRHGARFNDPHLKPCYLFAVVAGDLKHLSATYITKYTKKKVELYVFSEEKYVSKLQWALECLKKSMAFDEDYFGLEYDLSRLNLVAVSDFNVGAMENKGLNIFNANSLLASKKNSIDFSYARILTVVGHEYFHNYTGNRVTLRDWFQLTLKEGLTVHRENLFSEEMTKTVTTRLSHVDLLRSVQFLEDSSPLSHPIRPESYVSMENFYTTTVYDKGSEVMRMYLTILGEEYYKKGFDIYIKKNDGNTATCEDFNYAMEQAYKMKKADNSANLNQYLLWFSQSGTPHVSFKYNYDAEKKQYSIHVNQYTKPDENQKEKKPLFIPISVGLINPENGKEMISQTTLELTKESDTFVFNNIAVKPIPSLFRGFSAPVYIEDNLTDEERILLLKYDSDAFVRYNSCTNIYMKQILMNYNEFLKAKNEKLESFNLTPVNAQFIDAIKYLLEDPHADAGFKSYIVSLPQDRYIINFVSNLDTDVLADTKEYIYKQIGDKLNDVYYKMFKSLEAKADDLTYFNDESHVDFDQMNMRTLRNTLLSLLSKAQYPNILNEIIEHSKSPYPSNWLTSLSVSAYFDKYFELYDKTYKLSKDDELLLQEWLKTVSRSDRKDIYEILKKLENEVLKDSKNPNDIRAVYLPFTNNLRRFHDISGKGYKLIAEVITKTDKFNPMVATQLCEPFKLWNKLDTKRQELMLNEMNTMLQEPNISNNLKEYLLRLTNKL

[6] = target: Induced myeloid leukemia cell differentiation protein Mcl-1 (Homo sapiens, UniProt Q07820); assay type: functional
[7] = target: Glyceraldehyde-3-phosphate dehydrogenase (Homo sapiens, UniProt P04406)
[8] = system: Streptococcus sp. 'group A'; assay: Streptococcus pyogenes SK(-)GAS viability under kanamycin – luminescence, BacTiterGlo, confirmation, counter-screen for streptokinase expression inhibitor project, dose response (AID 1900); assay type: functional, organism-based
[9] = target: T5, Short transient receptor potential channel 4 (Mus musculus, UniProt Q9QUQ5); assay: block of DAMGO-driven TRPC4 calcium entry – cell-based, HEK293 TRPC4/mu-opioid, Fluo-4 calcium, dose response (AID 434942); assay type: functional;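 also: potency of inhibitors blocking the TRPC4 calcium response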
T5 sequence (Q9QUQ5 whole entry): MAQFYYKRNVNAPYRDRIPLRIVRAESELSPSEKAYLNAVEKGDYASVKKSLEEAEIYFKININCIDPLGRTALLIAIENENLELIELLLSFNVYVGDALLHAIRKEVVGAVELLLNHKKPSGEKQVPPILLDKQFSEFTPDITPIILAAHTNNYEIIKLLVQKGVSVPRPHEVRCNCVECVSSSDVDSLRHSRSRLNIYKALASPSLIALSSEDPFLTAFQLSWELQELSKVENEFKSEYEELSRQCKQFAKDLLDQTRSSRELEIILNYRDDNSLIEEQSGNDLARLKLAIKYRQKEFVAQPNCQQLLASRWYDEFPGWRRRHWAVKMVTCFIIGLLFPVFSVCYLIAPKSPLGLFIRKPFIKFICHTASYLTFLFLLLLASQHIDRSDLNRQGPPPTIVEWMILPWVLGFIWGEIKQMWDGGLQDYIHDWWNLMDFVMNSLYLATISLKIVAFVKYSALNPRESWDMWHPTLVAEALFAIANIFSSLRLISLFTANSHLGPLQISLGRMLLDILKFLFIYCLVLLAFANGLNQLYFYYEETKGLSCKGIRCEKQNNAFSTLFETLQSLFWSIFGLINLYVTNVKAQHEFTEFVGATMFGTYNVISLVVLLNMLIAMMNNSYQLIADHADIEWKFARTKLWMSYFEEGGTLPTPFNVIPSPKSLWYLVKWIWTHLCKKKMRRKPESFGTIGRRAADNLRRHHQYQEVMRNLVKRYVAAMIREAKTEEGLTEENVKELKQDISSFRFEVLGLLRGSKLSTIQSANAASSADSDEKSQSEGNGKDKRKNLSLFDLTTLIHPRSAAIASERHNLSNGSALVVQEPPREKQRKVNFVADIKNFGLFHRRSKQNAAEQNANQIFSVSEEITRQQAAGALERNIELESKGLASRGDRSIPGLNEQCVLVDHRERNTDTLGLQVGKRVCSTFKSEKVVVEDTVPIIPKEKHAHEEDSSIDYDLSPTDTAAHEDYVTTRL

Streptococcus = assay: GAS UMAA2166 growth inhibition – luminescence, BacTiterGlo, counter-screen for streptokinase expression inhibitor project, dose response (AID 1915); assay type: functional, organism-based;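 also: potency for reduction of bacterial viability or growth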
[10] = target: T6, Replicative DNA helicase DnaB (Mycobacterium tuberculosis, UniProt P9WMR3); assay: DnaB intein splicing inhibitors, dose response, biochemical, cell-free fluorescence (AID 449749); assay type: functional
T6 sequence (P9WMR3 whole entry): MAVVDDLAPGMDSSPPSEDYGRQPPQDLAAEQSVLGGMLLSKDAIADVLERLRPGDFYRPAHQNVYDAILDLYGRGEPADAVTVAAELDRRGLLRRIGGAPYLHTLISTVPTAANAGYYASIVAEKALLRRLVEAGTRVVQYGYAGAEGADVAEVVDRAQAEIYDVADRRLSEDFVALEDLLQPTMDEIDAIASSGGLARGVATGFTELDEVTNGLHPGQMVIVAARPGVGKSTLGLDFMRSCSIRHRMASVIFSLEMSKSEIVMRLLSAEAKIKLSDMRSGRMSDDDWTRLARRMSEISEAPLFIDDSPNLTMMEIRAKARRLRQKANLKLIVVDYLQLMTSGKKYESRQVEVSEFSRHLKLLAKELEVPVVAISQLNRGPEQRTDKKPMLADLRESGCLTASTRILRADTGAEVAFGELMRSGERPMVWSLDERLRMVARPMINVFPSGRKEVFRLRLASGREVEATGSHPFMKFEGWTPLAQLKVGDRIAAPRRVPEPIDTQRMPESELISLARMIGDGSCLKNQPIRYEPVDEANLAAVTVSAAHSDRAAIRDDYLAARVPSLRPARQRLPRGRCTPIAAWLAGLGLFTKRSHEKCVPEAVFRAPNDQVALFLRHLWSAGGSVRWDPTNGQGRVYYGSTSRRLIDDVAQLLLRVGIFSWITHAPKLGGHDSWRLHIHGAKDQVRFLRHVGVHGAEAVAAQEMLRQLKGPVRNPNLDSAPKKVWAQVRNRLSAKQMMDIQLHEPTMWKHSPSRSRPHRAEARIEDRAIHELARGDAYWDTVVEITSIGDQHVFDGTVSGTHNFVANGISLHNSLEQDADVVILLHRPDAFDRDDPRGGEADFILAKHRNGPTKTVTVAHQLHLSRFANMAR

Protein RecA = target: T7, Protein RecA (Mycobacterium tuberculosis, UniProt P9WHJ3); assay: Fluorescence Cell-Free Homogeneous Dose Retest to Identify Inhibitors of RecA-Intein Splicing Activity. [Related pubchem assays (depositor defined):AID2097, AID2223, AID489010, AID492950]; assay type: functional
T7 sequence (P9WHJ3 whole entry): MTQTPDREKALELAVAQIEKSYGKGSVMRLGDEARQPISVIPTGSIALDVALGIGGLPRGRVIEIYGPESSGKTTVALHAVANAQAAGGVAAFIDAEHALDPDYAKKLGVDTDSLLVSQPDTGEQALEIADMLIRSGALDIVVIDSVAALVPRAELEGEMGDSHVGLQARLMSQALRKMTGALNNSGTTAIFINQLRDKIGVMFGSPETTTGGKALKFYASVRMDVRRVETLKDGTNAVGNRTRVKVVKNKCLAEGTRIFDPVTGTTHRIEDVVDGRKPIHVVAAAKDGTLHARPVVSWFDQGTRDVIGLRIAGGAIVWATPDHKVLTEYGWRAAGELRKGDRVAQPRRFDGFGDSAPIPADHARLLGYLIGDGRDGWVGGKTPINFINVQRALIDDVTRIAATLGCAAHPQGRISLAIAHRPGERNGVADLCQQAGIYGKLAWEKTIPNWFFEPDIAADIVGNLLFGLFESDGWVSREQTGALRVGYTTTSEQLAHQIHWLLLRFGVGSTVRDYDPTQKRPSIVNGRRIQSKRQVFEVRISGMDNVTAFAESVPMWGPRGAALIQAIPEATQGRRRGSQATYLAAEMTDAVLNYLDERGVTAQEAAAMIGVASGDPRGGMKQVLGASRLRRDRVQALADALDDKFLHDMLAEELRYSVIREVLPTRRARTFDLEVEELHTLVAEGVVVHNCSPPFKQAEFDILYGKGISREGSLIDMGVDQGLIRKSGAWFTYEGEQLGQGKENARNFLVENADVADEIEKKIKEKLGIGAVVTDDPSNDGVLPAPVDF

Chain of Glyceraldehyde-3-phosphate dehydrogenase (P04406 whole entry): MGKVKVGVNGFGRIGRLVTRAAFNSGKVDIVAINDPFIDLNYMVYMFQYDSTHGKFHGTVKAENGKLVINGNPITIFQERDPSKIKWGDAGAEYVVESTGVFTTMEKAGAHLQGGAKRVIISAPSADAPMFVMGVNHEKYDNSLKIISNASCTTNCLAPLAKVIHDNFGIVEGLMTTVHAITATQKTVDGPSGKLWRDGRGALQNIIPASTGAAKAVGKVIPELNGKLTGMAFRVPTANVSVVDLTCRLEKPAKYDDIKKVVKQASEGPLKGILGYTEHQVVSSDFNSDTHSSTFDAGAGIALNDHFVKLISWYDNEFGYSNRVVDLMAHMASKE
Chain of Induced myeloid leukemia cell differentiation protein Mcl-1 (Q07820 whole entry): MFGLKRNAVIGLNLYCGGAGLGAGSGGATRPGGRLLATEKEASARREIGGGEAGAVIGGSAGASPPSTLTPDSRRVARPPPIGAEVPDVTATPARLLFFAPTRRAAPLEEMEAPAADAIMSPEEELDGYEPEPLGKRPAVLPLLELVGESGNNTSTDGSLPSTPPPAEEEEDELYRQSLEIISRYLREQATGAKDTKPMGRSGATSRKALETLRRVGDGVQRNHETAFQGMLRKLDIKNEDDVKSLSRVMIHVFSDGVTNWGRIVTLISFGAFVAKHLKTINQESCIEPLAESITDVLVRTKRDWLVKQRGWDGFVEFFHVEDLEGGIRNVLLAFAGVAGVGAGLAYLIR
T1 sequence (P11940 whole entry): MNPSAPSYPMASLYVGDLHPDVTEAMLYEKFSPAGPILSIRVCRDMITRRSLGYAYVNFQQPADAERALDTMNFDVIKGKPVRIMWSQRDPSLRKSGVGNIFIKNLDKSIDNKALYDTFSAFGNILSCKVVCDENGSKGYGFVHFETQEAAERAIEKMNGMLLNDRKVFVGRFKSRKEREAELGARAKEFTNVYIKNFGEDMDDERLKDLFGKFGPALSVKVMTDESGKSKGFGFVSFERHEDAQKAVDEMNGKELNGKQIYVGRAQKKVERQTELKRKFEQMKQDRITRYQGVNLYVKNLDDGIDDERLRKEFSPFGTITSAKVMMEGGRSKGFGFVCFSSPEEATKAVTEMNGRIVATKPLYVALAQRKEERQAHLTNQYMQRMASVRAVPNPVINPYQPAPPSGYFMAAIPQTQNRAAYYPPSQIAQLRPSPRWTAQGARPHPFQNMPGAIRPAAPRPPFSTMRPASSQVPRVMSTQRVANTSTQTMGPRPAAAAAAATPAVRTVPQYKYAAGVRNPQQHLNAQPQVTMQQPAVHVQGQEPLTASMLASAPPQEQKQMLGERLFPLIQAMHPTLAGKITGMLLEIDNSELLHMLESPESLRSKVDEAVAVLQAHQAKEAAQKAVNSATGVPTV
Chain of Large T antigen (P03070 whole entry): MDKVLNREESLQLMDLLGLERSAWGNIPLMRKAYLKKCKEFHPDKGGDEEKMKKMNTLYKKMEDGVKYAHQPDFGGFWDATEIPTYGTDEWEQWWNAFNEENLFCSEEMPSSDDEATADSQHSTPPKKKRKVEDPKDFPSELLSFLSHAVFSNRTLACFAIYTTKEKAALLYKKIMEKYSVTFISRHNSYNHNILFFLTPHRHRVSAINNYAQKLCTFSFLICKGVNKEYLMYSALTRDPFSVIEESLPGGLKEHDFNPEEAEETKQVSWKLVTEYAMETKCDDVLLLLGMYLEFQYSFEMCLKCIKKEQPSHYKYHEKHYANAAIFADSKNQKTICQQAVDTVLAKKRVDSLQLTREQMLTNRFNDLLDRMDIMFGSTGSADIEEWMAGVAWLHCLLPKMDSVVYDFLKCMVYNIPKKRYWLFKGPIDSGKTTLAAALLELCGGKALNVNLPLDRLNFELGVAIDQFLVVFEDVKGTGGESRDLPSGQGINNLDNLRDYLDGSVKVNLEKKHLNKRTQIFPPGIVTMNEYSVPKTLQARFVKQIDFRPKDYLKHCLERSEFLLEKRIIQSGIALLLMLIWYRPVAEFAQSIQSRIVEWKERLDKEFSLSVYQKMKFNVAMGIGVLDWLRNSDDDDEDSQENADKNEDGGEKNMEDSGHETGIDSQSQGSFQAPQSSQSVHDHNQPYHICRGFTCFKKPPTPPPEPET

`Nc1nnc(S)n1N=C1C(=O)Nc2ccccc21` was tested, and the IC50 [1] was > 66 µM (inactive), the IC50 [2] was 4.84 µM (active) and the IC50 [3] was > 66 µM (inactive). The IC50 [4] was 57.4 µM (active), the IC50 [5] was 30 µM (active) and the IC50 (Large T antigen) was 7.65 µM (active).
With `CC(=O)NNC(=O)c1sc(=S)n2c1[nH]c(=O)c1sccc12` the IC50 [2] was > 50 µM (not active), the IC50 [5] was > 50 µM (not active) and the IC50 (Aminopeptidase N) was 11.6 µM (active).
With `Oc1ccc(/C=N/Nc2ccnc3cc(Cl)ccc23)c(O)c1` the IC50 [6] was 6.73 µM (active).
With `C[C@H]1CN(C2=C(Cl)C(=O)N(c3ccnc(Cl)c3)C2=O)CCN1` the IC50 [7] was > 50 µM (inconclusive).
In the case of `O=C(NCCO)c1cc(-c2ccc(F)cc2F)n[nH]1`, the IC50 [7] is reported as > 10 µM (inconclusive).
For `Cc1[nH]n(-c2ccccc2)c(=O)c1/C=C1/C(=O)NN(c2ccc(F)c(Cl)c2)C1=O`, the EC50 [8] was 4.06 µM (active), the EC50 [9] was 5.31 µM (active) and the EC50 (Streptococcus) was 7.24 µM (active). For the same compound, the AC50 [10] was 4.54 µM (active), the IC50 [6] was 5.78 µM (active) and the EC50 (Protein RecA) was 12 µM (active).
`COc1ccc(N2CCN(C3=C(Cl)C(=O)N(c4cccc(OC)c4)C3=O)CC2)cc1` was tested, and the IC50 [7] was > 50 µM (inconclusive).
In the case of `CCCOc1ccc(Cc2nn3c(=O)/c(=C/c4ccco4)sc3nc2=O)cc1`, the IC50 [6] is reported as 8.96 µM (not active).
`COc1ccccc1/C=C1/SC(=O)N(CCC(=O)Nc2ccc(S(=O)(=O)Nc3nccs3)cc2)C1=O` was tested, and the IC50 [6] was 2.69 µM (active).
